ChEMBL document CHEMBL1201862, “PubChem BioAssay data set” (2004)
The source made the active and inactive calls. Rule as the data show it: actives have a measured IC50 and inactives only a lower limit.

Molecular target: Envelope glycoprotein gp160 (Human immunodeficiency virus 1, UniProt Q6QLK5)
Test: inhibitors of HIV fusion peptide binding, primary screen, biochemical, uHTS, fluorescence dequenching (AID 1986)

Chain of Envelope glycoprotein gp160 (Q6QLK5 whole entry, the tested form may be a part): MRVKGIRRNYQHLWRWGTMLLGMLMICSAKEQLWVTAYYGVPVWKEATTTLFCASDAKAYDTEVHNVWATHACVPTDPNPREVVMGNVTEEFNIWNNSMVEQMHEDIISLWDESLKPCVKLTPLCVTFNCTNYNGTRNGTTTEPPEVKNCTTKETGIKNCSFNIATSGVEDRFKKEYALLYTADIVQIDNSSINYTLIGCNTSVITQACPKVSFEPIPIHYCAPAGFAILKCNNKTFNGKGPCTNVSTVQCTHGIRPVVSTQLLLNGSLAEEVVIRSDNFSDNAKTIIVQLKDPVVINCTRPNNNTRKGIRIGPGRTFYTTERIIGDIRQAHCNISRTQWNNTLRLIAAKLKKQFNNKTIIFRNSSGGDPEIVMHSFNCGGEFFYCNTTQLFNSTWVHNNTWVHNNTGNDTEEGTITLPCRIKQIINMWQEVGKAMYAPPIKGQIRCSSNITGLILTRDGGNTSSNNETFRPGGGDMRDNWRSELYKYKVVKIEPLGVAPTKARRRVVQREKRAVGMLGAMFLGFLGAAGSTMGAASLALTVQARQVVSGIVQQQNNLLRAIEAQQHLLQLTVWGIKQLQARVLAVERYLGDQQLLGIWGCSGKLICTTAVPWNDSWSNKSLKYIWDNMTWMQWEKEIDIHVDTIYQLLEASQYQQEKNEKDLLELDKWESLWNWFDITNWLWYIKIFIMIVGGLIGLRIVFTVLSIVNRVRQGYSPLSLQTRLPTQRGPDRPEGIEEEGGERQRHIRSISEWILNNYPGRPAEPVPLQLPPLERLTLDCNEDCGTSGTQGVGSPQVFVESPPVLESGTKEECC

Question: With COc1cc(/C=C2/C(=N)N3C(=NC2=O)SN=C3S(C)(=O)=O)ccc1OS(=O)(=O)c1ccccc1 as the compound, how does the IC50 read?
Answer: 19.8 µM (active)
